The source of these data is ChEMBL document CHEMBL1201862, “PubChem BioAssay data set” (2004).

Some test systems named below: CAKI-1; HCT-15; NCI-H226; SN12C; UACC-62; K562; LXFL 529; UO-31; SK-MEL-28; RXF 393; HOP-92; MOLT-4; SF-268; SK-MEL-5; A549; HOP-62; EKVX; MDA-MB-435; MCF7; MDA-N.
Holding throughout (assay): inhibition of tumour cell growth, NCI panel, 48 h

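All cell lines were grown in 96-well plates and treated with compound for 48 hours. The concentration for 50% growth inhibition is given as GI50.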 Active and inactive are the calls of the source. No stated cut-off is given here; in the data, active = GI50 up to about 1.1 µM and inactive = higher.

In the case of `COc1ccccc1/C=C(\C#N)c1ccccc1`, the GI50 in the assay on CAKI-1 was 16.6 µM (inactive); in the assay on HCT-15, 18.4 µM; in the assay with NCI-H226, 3.13 µM (inactive); in the assay on SN12C, 49.1 µM (inactive); in the assay with UACC-62, 44.9 µM (inactive); with K562, 11.4 µM (inactive). For the same compound, the GI50 was 36.1 µM (inactive) in the assay on LXFL 529; 28.8 µM (inactive) in the assay on UO-31; 45.5 µM (inactive) with SK-MEL-28; 27.7 µM (inactive) in the assay with RXF 393; 45 µM (inactive) in the assay with HOP-92; 16.6 µM (inactive) with MOLT-4. Further, the GI50 in the assay on SF-268 was 82.8 µM (inactive); in the assay on SK-MEL-5 it was 16.7 µM (inactive); with A549 it was 37 µM (inactive); in the assay with HOP-62, 46.5 µM (inactive).

Consider `Cc1cc([N+](=O)[O-])ccc1Nc1cccc(Cl)c1C`, for which the GI50 in the assay on CAKI-1 was 11.6 µM (inactive); with HCT-15, 16.8 µM; with NCI-H226, 18.9 µM (inactive); in the assay with SN12C, 16.7 µM (inactive); with UACC-62 it was 12.6 µM (inactive); with K562, 11.3 µM (inactive). Further, the GI50 in the assay on LXFL 529 is 14.4 µM (inactive); in the assay with UO-31, 11.7 µM (inactive); in the assay on SK-MEL-28, 16.7 µM (inactive); in the assay on RXF 393, 17.7 µM (inactive); in the assay on MOLT-4, 14.8 µM (inactive); with EKVX, 20 µM (inactive). The GI50 in the assay with SF-268 is 17 µM (inactive); in the assay with SK-MEL-5 it was 15.6 µM (inactive); with A549, 16.6 µM (inactive); in the assay with HOP-62 it was 14.7 µM (inactive).

As to `O=C1c2ccccc2-c2cccc3ccc(Cc4ccccc4)c1c23`, the GI50 was more than 100 µM in the assay on HCT-15; > 100 µM (inactive) in the assay on SN12C; > 100 µM (inactive) in the assay with UACC-62; 37.6 µM (inactive) with K562; > 100 µM (inactive) with LXFL 529; > 100 µM (inactive) with UO-31. The GI50 with SK-MEL-28, in the assay with RXF 393, in the assay with HOP-92, in the assay with MOLT-4, in the assay on EKVX and in the assay on SF-268 was > 100 µM (inactive) in each case. Also, the GI50 with SK-MEL-5, with A549 and with HOP-62 was > 100 µM (inactive) in each case.

Regarding `CN(C)CCCCC1CCN(CC(=O)N2c3ccccc3NC(=O)c3ccccc32)CC1`, the GI50 in the assay on CAKI-1, in the assay on NCI-H226, in the assay with SN12C, with UACC-62, in the assay on K562 and in the assay with LXFL 529 was > 100 µM (inactive) in each case. The GI50 with UO-31, in the assay on SK-MEL-28, in the assay with HOP-92, with MOLT-4, in the assay on EKVX and with SF-268 was > 100 µM (inactive) in each case. Moreover, the GI50 in the assay with SK-MEL-5, in the assay with A549 and in the assay on HOP-62 was > 100 µM (inactive) throughout.

Turning to `ClCCCCOC1CCCCO1` (centres undefined), the GI50 in the assay on CAKI-1 was > 100 µM (inactive); in the assay with HCT-15 it was more than 100 µM; in the assay with NCI-H226, > 100 µM (inactive); in the assay with SN12C, > 100 µM (inactive); with UACC-62 it was > 100 µM (inactive); in the assay on LXFL 529 it was > 100 µM (inactive). The GI50 in the assay with UO-31, with SK-MEL-28, in the assay with RXF 393, with HOP-92, with MOLT-4 and with EKVX was > 100 µM (inactive) each time. Moreover, the GI50 with SF-268, with SK-MEL-5, with A549 and in the assay on HOP-62 was > 100 µM (inactive) each time.

On to `N#C/N=C1\NCCC(=O)N1CCc1c[nH]c2ccccc12`, for which the GI50 in the assay on HCT-15 was more than 100 µM; in the assay with NCI-H226, > 100 µM (inactive); with SN12C, > 100 µM (inactive); in the assay with UACC-62 it was > 100 µM (inactive); in the assay with K562 it was > 100 µM (inactive); with LXFL 529, > 100 µM (inactive). In addition, the GI50 in the assay with UO-31, in the assay with SK-MEL-28, in the assay with RXF 393, with MOLT-4, with EKVX and with SF-268 was > 100 µM (inactive) each time. Further, the GI50 in the assay with SK-MEL-5, with A549 and in the assay with HOP-62 was > 100 µM (inactive) each time.

Consider `O=C1/C(=N\O)S(=O)(=O)c2ccccc21`, for which the GI50 was > 100 µM (inactive) in the assay on CAKI-1; more than 100 µM in the assay with HCT-15; > 100 µM (inactive) with NCI-H226; > 100 µM (inactive) in the assay on SN12C; > 100 µM (inactive) in the assay with UACC-62; > 100 µM (inactive) with K562. The GI50 in the assay on LXFL 529, in the assay with UO-31, with RXF 393, in the assay on HOP-92, with MOLT-4 and in the assay on SF-268 was > 100 µM (inactive) throughout. Besides, the GI50 in the assay on SK-MEL-5, with A549 and in the assay on HOP-62 was > 100 µM (inactive) throughout.

As for `O=C1C2Cc3ccccc3CN2C(=O)N1CCN1CCOCC1` (centres undefined), the GI50 in the assay with CAKI-1 was > 100 µM (inactive); in the assay with HCT-15 it was more than 100 µM; in the assay on NCI-H226, > 100 µM (inactive); in the assay on SN12C, > 100 µM (inactive); in the assay on UACC-62 it was > 100 µM (inactive); in the assay on K562, > 100 µM (inactive). Besides, the GI50 in the assay with LXFL 529, in the assay on UO-31, in the assay with SK-MEL-28, with MOLT-4, in the assay on SF-268 and in the assay on SK-MEL-5 was > 100 µM (inactive) in each case. Besides, the GI50 in the assay with A549 and in the assay with HOP-62 was > 100 µM (inactive) each time.

Take `O=S(=O)(c1ccccc1)n1cnc(CCc2ccccc2)n1`: the GI50 with CAKI-1 is > 100 µM (inactive); with HCT-15, more than 100 µM; in the assay on NCI-H226 it was > 100 µM (inactive); in the assay with SN12C it was > 100 µM (inactive); with UACC-62, > 100 µM (inactive); in the assay on K562, > 100 µM (inactive). Moreover, the GI50 with LXFL 529, with UO-31, in the assay with SK-MEL-28, in the assay with RXF 393, with HOP-92 and with MOLT-4 was > 100 µM (inactive) in each case. Besides, the GI50 with SF-268, in the assay with SK-MEL-5, in the assay on A549 and in the assay with HOP-62 was > 100 µM (inactive) in each case.

Turning to `O=C(c1ccccc1)c1oc2ccc(Br)cc2c1-c1cnn(-c2ccccc2)c1`, the GI50 is > 100 µM (inactive) in the assay on CAKI-1; more than 100 µM in the assay with HCT-15; > 100 µM (inactive) in the assay on SN12C; > 100 µM (inactive) in the assay on UACC-62; > 100 µM (inactive) with K562; > 100 µM (inactive) in the assay on LXFL 529. The GI50 is > 100 µM (inactive) with UO-31; > 100 µM (inactive) in the assay with SK-MEL-28; > 100 µM (inactive) with RXF 393; > 100 µM (inactive) with HOP-92; > 100 µM (inactive) with MOLT-4; > 10 µM (inactive) with EKVX. Besides, the GI50 was > 100 µM (inactive) in the assay on SF-268, > 10 µM (inactive) in the assay with SK-MEL-5, > 10 µM (inactive) in the assay with A549 and > 100 µM (inactive) in the assay on HOP-62.

For the compound `COc1ccc2c(c1)OCCCN(C)OC2c1ccccc1` (centres undefined), the GI50 is > 100 µM (inactive) in the assay with CAKI-1; more than 100 µM in the assay on HCT-15; > 100 µM (inactive) with NCI-H226; > 100 µM (inactive) in the assay with SN12C; > 100 µM (inactive) in the assay on UACC-62; > 100 µM (inactive) in the assay with K562. For the same compound, the GI50 in the assay on LXFL 529 was > 100 µM (inactive); in the assay with UO-31, > 100 µM (inactive); in the assay on SK-MEL-28, 89.3 µM (inactive); in the assay with RXF 393, > 100 µM (inactive); with MOLT-4, > 100 µM (inactive); in the assay with EKVX it was > 100 µM (inactive). For the same compound, the GI50 with SF-268, in the assay with SK-MEL-5 and in the assay on A549 was > 100 µM (inactive) in each case.

Take `N=C(N)NS(=O)(=O)c1ccc(Nc2c3ccccc3nc3c(C(=O)Nc4ccc(S(N)(=O)=O)cc4)cccc23)cc1`: the GI50 with CAKI-1 was > 100 µM (inactive); in the assay with HCT-15, more than 100 µM; in the assay with SN12C it was > 100 µM (inactive); in the assay with UACC-62, 93.3 µM (inactive); with K562, 33.3 µM (inactive); in the assay with LXFL 529, 26.8 µM (inactive). The GI50 with UO-31 was > 100 µM (inactive); in the assay on SK-MEL-28, > 100 µM (inactive); with RXF 393, 95.3 µM (inactive); in the assay with HOP-92, 47.9 µM (inactive); with MOLT-4, > 100 µM (inactive); in the assay on EKVX it was > 100 µM (inactive). For the same compound, the GI50 in the assay with SF-268 is 98.9 µM (inactive); with SK-MEL-5, 78.9 µM (inactive); with A549, > 100 µM (inactive); in the assay with HOP-62 it was > 100 µM (inactive).

Consider `CCOP(=O)(OCC)C(c1ccccc1)N(C(=O)NC(F)(F)F)c1ccc(C)cc1` (centres undefined), for which the GI50 with CAKI-1 is > 100 µM (inactive); in the assay on HCT-15 it was more than 100 µM; with NCI-H226 it was > 100 µM (inactive); in the assay on SN12C, > 100 µM (inactive); in the assay on UACC-62 it was > 100 µM (inactive); with K562 it was > 100 µM (inactive). The GI50 is > 100 µM (inactive) in the assay on MDA-MB-435; > 100 µM (inactive) with UO-31; > 100 µM (inactive) in the assay on SK-MEL-28; > 100 µM (inactive) with RXF 393; 19.1 µM (inactive) in the assay on HOP-92; > 100 µM (inactive) in the assay with MOLT-4. In addition, the GI50 with EKVX, in the assay on MCF7, in the assay on SF-268, in the assay with MDA-N, in the assay on SK-MEL-5 and with A549 was > 100 µM (inactive) throughout. Besides, in the assay with HOP-62, the GI50 was > 100 µM (inactive).
